Assay results as given in US12139520B2 (priority 2020, dated 2024).
Bridge positions count the residues as written; N and C are the ends. Square brackets hold non-standard residues; d marks the D form. Peptide text beside a SMILES is read from it. Hyp = O=C(O)[C@@H]1C[C@@H](O)CN1

Assay: Physical stability of peptide analogues (Thioflavin T fibrillation)
Assay type: physicochemical
Conditions: maximum ThT signal normalized between hAMY maximum and buffer background; 40° C., shaking, four days; pH 7 per table title
Method: General Protocols for Determination of Physical Stability of Peptide Analogues
Peptides were dissolved in buffers (50 mM sodium acetate at pH 4 or 50 mM sodium phosphate at pH 7) and incubated for one hour. The samples were then divided into two replicates of 80 μl in a black 384 well plate (μ-clear, Greiner Bio-One) and mixed with Thioflavin T (ThT) to a final concentration of 4 μM. The plate was sealed and placed in a plate reader (CLARIOstar, BMG) where the temperature was set at 40° C. during the course of the experiment. The samples were further stressed by shaking the plate at 700 rpm (linear) for five minutes before every measurement. The fluorescence was measured every 10 min for four days by exciting the ThT at 450 nm and measuring the emission at 480 nm. For each peptide, the ThT signal over time was smoothened using Local Polynomial Regression fitting (LOESS) as implemented in the statistical programming environment R. For the smoothened data, the maximum ThT signal was normalized in percent between the maximum ThT signal for hAMY and the buffer background.

SMILES: CC[C@H](C)[C@H](NC(=O)[C@H](CCC(N)=O)NC(=O)[C@H](Cc1c[nH]cn1)NC(=O)[C@H](C)NC(=O)[C@H](CC(C)C)NC(=O)[C@H](CCCCN)NC(=O)[C@H](CCC(N)=O)NC(=O)[C@@H](NC(=O)[C@@H](NC(=O)[C@@H]1CSSC[C@H](NC(=O)CN)C(=O)N[C@@H](CCCNC(=N)N)C(=O)N[C@@H](Cc2ccccc2)C(=O)NCC(=O)N[C@@H]([C@@H](C)O)C(=O)N1)[C@@H](C)O)C(C)C)C(=O)N[C@@H](Cc1ccc(O)cc1)C(=O)N[C@@H](CCC(N)=O)C(=O)N[C@@H](Cc1ccccc1)C(=O)N[C@H](C(=O)N[C@@H](CC(=O)O)C(=O)N[C@@H](CCCCN)C(=O)N[C@@H](CC(=O)O)C(=O)N[C@@H](CCCCN)C(=O)N[C@@H](CC(=O)O)C(=O)N[C@@H](CC(N)=O)C(=O)N[C@H](C(=O)N[C@@H](C)C(=O)N1CCC[C@H]1C(=O)N[C@@H](CCCNC(=N)N)C(=O)N[C@@H](CO)C(=O)N[C@@H](CCCCN)C(=O)N[C@H](C(=O)N[C@@H](CO)C(=O)N1CCC[C@H]1C(=O)N[C@@H](CCC(N)=O)C(=O)NCC(=O)N[C@@H](Cc1ccc(O)cc1)C(N)=O)[C@@H](C)CC)C(C)C)[C@@H](C)O [compound 1]
- Max ThT signal (%): 2.600%

SMILES: CC[C@H](C)[C@H](NC(=O)[C@H](CCC(N)=O)NC(=O)[C@H](Cc1c[nH]cn1)NC(=O)[C@H](C)NC(=O)[C@H](CC(C)C)NC(=O)[C@H](CCCNC(=N)N)NC(=O)[C@H](CCC(N)=O)NC(=O)[C@@H](NC(=O)[C@@H](NC(=O)[C@@H]1CSSC[C@H](NC(=O)[C@@H](N)CCCCN)C(=O)N[C@@H](CC(N)=O)C(=O)N[C@@H]([C@@H](C)O)C(=O)N[C@@H](C)C(=O)N[C@@H]([C@@H](C)O)C(=O)N1)[C@@H](C)O)C(C)C)C(=O)N[C@@H](Cc1ccc(O)cc1)C(=O)N[C@@H](CCC(N)=O)C(=O)N[C@@H](Cc1ccccc1)C(=O)N[C@H](C(=O)N[C@@H](CCCCN)C(=O)N[C@@H](CC(=O)O)C(=O)N[C@@H](CCCCN)C(=O)N[C@@H](CC(=O)O)C(=O)N[C@@H](CC(N)=O)C(=O)N[C@H](C(=O)N[C@@H](C)C(=O)N1CCC[C@H]1C(=O)N1CCC[C@H]1C(=O)N[C@H](C(=O)N[C@@H](CC(N)=O)C(=O)N[C@H](C(=O)NCC(=O)N[C@@H](CO)C(=O)N[C@@H](CC(N)=O)C(=O)NCC(=O)N1C[C@H](O)C[C@H]1C(N)=O)C(C)C)[C@@H](C)O)C(C)C)[C@@H](C)O [compound 29] (H-KCNTATCTVQRLAHQIYQFTKDKDNVAPPTNVGSNG[Hyp]-NH2; disulfide 2-7; N-terminus assumed)
- Max ThT signal (%): 9.300%

SMILES: CC[C@H](C)[C@H](NC(=O)[C@H](CCC(N)=O)NC(=O)[C@H](Cc1c[nH]cn1)NC(=O)[C@H](C)NC(=O)[C@H](CC(C)C)NC(=O)[C@H](CCCNC(=N)N)NC(=O)[C@H](CCC(N)=O)NC(=O)[C@@H](NC(=O)[C@@H](NC(=O)[C@@H]1CSSC[C@H](NC(=O)CN)C(=O)N[C@@H](CCCNC(=N)N)C(=O)N[C@@H]([C@@H](C)O)C(=O)NCC(=O)N[C@@H]([C@@H](C)O)C(=O)N1)[C@@H](C)O)C(C)C)C(=O)N[C@@H](Cc1ccc(O)cc1)C(=O)N[C@@H](CCC(N)=O)C(=O)N[C@@H](Cc1ccccc1)C(=O)N[C@H](C(=O)N[C@@H](CC(=O)O)C(=O)N[C@@H](CCCCN)C(=O)N[C@@H](CC(=O)O)C(=O)N[C@@H](CCCCN)C(=O)N[C@@H](CC(=O)O)C(=O)N[C@@H](CC(N)=O)C(=O)N[C@H](C(=O)N[C@@H](C)C(=O)N1CCC[C@H]1C(=O)N[C@@H](CCCNC(=N)N)C(=O)N[C@@H](CO)C(=O)N[C@@H](CC(N)=O)C(=O)N[C@H](C(=O)N[C@@H](CO)C(=O)N1CCC[C@H]1C(=O)N[C@@H](CC(N)=O)C(=O)NCC(=O)N[C@@H](Cc1ccc(O)cc1)C(N)=O)C(C)C)C(C)C)[C@@H](C)O [compound 172] (H-GCRTGTCTVQRLAHQIYQFTDKDKDNVAPRSNVSPNGY-NH2; disulfide 2-7; N-terminus assumed)
- Max ThT signal (%): 13.900%

SMILES: CC[C@H](C)[C@H](NC(=O)[C@H](CCC(N)=O)NC(=O)[C@H](Cc1c[nH]cn1)NC(=O)[C@H](C)NC(=O)[C@H](CC(C)C)NC(=O)[C@H](CCCNC(=N)N)NC(=O)[C@H](CCC(N)=O)NC(=O)[C@@H](NC(=O)[C@@H](NC(=O)[C@@H]1CSSC[C@H](NC(=O)CN)C(=O)N[C@@H](CCCNC(=N)N)C(=O)N[C@@H](Cc2ccccc2)C(=O)NCC(=O)N[C@@H]([C@@H](C)O)C(=O)N1)[C@@H](C)O)C(C)C)C(=O)N[C@@H](Cc1ccc(O)cc1)C(=O)N[C@@H](CCC(N)=O)C(=O)N[C@@H](Cc1ccccc1)C(=O)N[C@H](C(=O)N[C@@H](CC(=O)O)C(=O)N[C@@H](CCCCN)C(=O)N[C@@H](CC(=O)O)C(=O)N[C@@H](CCCCN)C(=O)N[C@@H](CC(=O)O)C(=O)N[C@@H](CC(N)=O)C(=O)N[C@H](C(=O)N[C@@H](C)C(=O)N1CCC[C@H]1C(=O)N[C@@H](CCCNC(=N)N)C(=O)N[C@@H](CO)C(=O)N[C@@H](CCCCN)C(=O)N[C@H](C(=O)N[C@@H](CO)C(=O)N1CCC[C@H]1C(=O)N[C@@H](CC(N)=O)C(=O)NCC(=O)N1C[C@H](O)C[C@H]1C(N)=O)C(C)C)C(C)C)[C@@H](C)O [compound 175] (H-GCRFGTCTVQRLAHQIYQFTDKDKDNVAPRSKVSPNG[Hyp]-NH2; disulfide 2-7)
- Max ThT signal (%): 3.200%

SMILES: CC[C@H](C)[C@H](NC(=O)[C@H](CCC(N)=O)NC(=O)[C@H](Cc1c[nH]cn1)NC(=O)[C@H](C)NC(=O)[C@H](CC(C)C)NC(=O)[C@H](CCCNC(=N)N)NC(=O)[C@H](CCC(N)=O)NC(=O)[C@@H](NC(=O)[C@@H](NC(=O)[C@@H]1CSSC[C@H](NC(=O)CN)C(=O)N[C@@H](CCCNC(=N)N)C(=O)N[C@@H]([C@@H](C)O)C(=O)NCC(=O)N[C@@H]([C@@H](C)O)C(=O)N1)[C@@H](C)O)C(C)C)C(=O)N[C@@H](Cc1ccc(O)cc1)C(=O)N[C@@H](CCC(N)=O)C(=O)N[C@@H](Cc1ccccc1)C(=O)N[C@H](C(=O)N[C@@H](CC(=O)O)C(=O)N[C@@H](CCCCN)C(=O)N[C@@H](CC(=O)O)C(=O)N[C@@H](CCCCN)C(=O)N[C@@H](CC(=O)O)C(=O)N[C@@H](CC(N)=O)C(=O)N[C@H](C(=O)N[C@@H](C)C(=O)N1CCC[C@H]1C(=O)N[C@@H](CCCNC(=N)N)C(=O)N[C@@H](CO)C(=O)N[C@@H](CCCCN)C(=O)N[C@H](C(=O)NCC(=O)N1CCC[C@H]1C(=O)N[C@@H](CCC(N)=O)C(=O)NCC(=O)N1C[C@H](O)C[C@H]1C(N)=O)C(C)C)C(C)C)[C@@H](C)O [compound 187] (H-GCRTGTCTVQRLAHQIYQFTDKDKDNVAPRSKVGPQG[Hyp]-NH2; disulfide 2-7; N-terminus assumed)
- Max ThT signal (%): 1.600%

SMILES: CC[C@H](C)[C@H](NC(=O)[C@H](CCC(N)=O)NC(=O)[C@H](Cc1c[nH]cn1)NC(=O)[C@H](C)NC(=O)[C@H](CC(C)C)NC(=O)[C@H](CCCNC(=N)N)NC(=O)[C@H](CCC(N)=O)NC(=O)[C@@H](NC(=O)[C@@H](NC(=O)[C@@H]1CSSC[C@H](NC(=O)CN)C(=O)N[C@@H](CCCNC(=N)N)C(=O)N[C@@H]([C@@H](C)O)C(=O)NCC(=O)N[C@@H]([C@@H](C)O)C(=O)N1)[C@@H](C)O)C(C)C)C(=O)N[C@@H](Cc1ccc(O)cc1)C(=O)N[C@@H](CCC(N)=O)C(=O)N[C@@H](Cc1ccccc1)C(=O)N[C@H](C(=O)N[C@@H](CC(=O)O)C(=O)N[C@@H](CCCCN)C(=O)N[C@@H](CC(=O)O)C(=O)N[C@@H](CCCCN)C(=O)N[C@@H](CC(=O)O)C(=O)N[C@@H](CC(N)=O)C(=O)N[C@H](C(=O)N[C@@H](C)C(=O)N1CCC[C@H]1C(=O)N[C@@H](CCCNC(=N)N)C(=O)N[C@H](C(=O)N[C@@H](CCCCN)C(=O)N[C@H](C(=O)N[C@@H](CO)C(=O)N1CCC[C@H]1C(=O)N[C@@H](CCC(N)=O)C(=O)NCC(=O)N1C[C@H](O)C[C@H]1C(N)=O)[C@@H](C)CC)[C@@H](C)O)C(C)C)[C@@H](C)O [compound 189] (H-GCRTGTCTVQRLAHQIYQFTDKDKDNVAPRTKISPQG[Hyp]-NH2; disulfide 2-7; N-terminus assumed)
- Max ThT signal (%): 6.000%

SMILES: CC[C@H](C)[C@H](NC(=O)[C@H](CCC(N)=O)NC(=O)[C@H](Cc1c[nH]cn1)NC(=O)[C@H](C)NC(=O)[C@H](CC(C)C)NC(=O)[C@H](CCCNC(=N)N)NC(=O)[C@H](CCC(N)=O)NC(=O)[C@@H](NC(=O)[C@@H](NC(=O)[C@@H]1CSSC[C@H](NC(=O)CN)C(=O)N[C@@H](CCCNC(=N)N)C(=O)N[C@@H]([C@@H](C)O)C(=O)NCC(=O)N[C@@H]([C@@H](C)O)C(=O)N1)[C@@H](C)O)C(C)C)C(=O)N[C@@H](Cc1ccc(O)cc1)C(=O)N[C@@H](CCC(N)=O)C(=O)N[C@@H](Cc1ccccc1)C(=O)N[C@H](C(=O)N[C@@H](CC(=O)O)C(=O)N[C@@H](CCCCN)C(=O)N[C@@H](CC(=O)O)C(=O)N[C@@H](CCCCN)C(=O)N[C@@H](CC(=O)O)C(=O)N[C@@H](CC(N)=O)C(=O)N[C@H](C(=O)N[C@@H](C)C(=O)N1CCC[C@H]1C(=O)N[C@@H](CCCNC(=N)N)C(=O)N[C@H](C(=O)N[C@@H](CCCCN)C(=O)N[C@H](C(=O)N[C@@H](CO)C(=O)N1CCC[C@H]1C(=O)N[C@@H](CC(N)=O)C(=O)NCC(=O)N[C@@H](Cc1ccc(O)cc1)C(N)=O)[C@@H](C)CC)[C@@H](C)O)C(C)C)[C@@H](C)O [compound 190] (H-GCRTGTCTVQRLAHQIYQFTDKDKDNVAPRTKISPNGY-NH2; disulfide 2-7)
- Max ThT signal (%): 12.900%
